Reference: patent publication US10654876B2, “TH-302 solid forms and methods related thereto” (Molecular Templates, Inc., priority 2014, dated 2020)

Legend:
[1] = Stability of crystalline form A to relative humidity; format: physicochemical; settings: 15% relative humidity (RH) at 25° C.; anhydrous crystalline form A
Procedure: (§1) Crystalline form A of TH-302 is anhydrous which is stable to 15% relative humidity (RH) at 25° C. No change in the chemical purity of TH-302 was observed after one week when in accelerated stability tests at high temperature (40° C.) and high relative humidity (75% RH). An improvement in the physical appearance of a dosage form of a drug enhances both physician and patient acceptance and increases the likelihood of success of the treatment.

[2] = Accelerated stability test at high temperature and high relative humidity; format: physicochemical; settings: 40° C., 75% RH, after one week
Procedure: as §1

Cn1c(COP(=O)(NCCBr)NCCBr)cnc1[N+](=O)[O-] [TH-302, N,N′-Bis(2-bromoethyl)phosphorodiamidic acid (1-methyl-2-nitro-1H-imidazol-5-yl)methyl ester]
stability to relative humidity [1]: stable
change in the chemical purity [2]: No change
